Source: patent US11464749B2, “Bismuth-thiol compositions and methods of use” (Microbion Corporation, priority 2018, dated 2022)
“And” between values parts separate entries of the source, which are not always exact repeats. Equal values may be shown once. Read-outs that look alike come from different tables or passages of the source.

How the values were obtained:
[1] = test system: B. cenocepacia; experiment: FIC checkerboard assay; format: cell-based; settings: for FICB: FIC of Meropenem in combination with BisEDT; for FICB / MICB: per checkerboard row; for MICB: MIC of Meropenem in combination with BisEDT; for MIC: Burkholderia cenocepacia, Meropenem alone (panel with BisEDT), read-out: Drug B MIC
[2] = test system: S. pneumoniae; experiment: Broth microdilution MIC (Example 11); settings: Streptococcus pneumoniae
[3] = test system: Escherichia coli; experiment: Broth microdilution MIC (Example 11)
[4] = test system: Enterobacter cloacae; experiment: Broth microdilution MIC (Example 11); settings: ATCCBAA2468
[5] = test system: B. cepacia; experiment: FIC checkerboard assay; format: cell-based; settings: Burkholderia cepacia, Meropenem alone (checkerboard with BisEDT), read-out: Drug B MIC
[6] = test system: Acinetobacter baumannii; experiment: Broth microdilution MIC (Example 11); settings: Acinetobacter baumannii
[7] = test system: Klebsiella pneumoniae; experiment: Broth microdilution MIC (Example 11)
[8] = test system: Pseudomonas aeruginosa; experiment: Broth microdilution MIC (Example 11); settings: Pseudomonas aeruginosa
[9] = test system: S. pyogenes; experiment: Broth microdilution MIC (Example 11); settings: Streptococcus pyogenes
[10] = test system: S. agalactiae; experiment: Broth microdilution MIC (Example 11); settings: Streptococcus agalactiae
[11] = test system: E. faecalis; experiment: Broth microdilution MIC (Example 11); settings: Enterococcus faecalis, VRE, VRE Lev^R Cip^R Ery^R
[12] = test system: P. aeruginosa; experiment: FIC checkerboard assay; format: cell-based; settings: for MIC: Pseudomonas aeruginosa

C[C@@H](O)[C@H]1C(=O)N2C(C(=O)O)=C(S[C@@H]3CN[C@H](C(=O)N(C)C)C3)[C@H](C)[C@H]12 [Meropenem, reference compound]
≤ 0.008 µg/mL: MIC ([9]; S. pyogenes MMX 3068, Ery^R) | MIC ([9]; S. pyogenes MMX 3820, ERY^R CLI^R) | MIC ([9]; S. pyogenes MMX 3919, ERY^R) | MIC ([9]; S. pyogenes MMX 3929, ERY^R CC^R) | MIC ([9]; S. pyogenes MMX 5091, ERY^R CC^R)
2 µg/mL and 4 µg/mL: MICB ([1]; B. cenocepacia 548)
> 64 µg/mL: MIC [4] | MIC ([7]; K. pneumoniae MMX 4622, KPC-2, MEM^R, CAZ^R) | MIC ([7]; K. pneumoniae MMX 4623, KPC-2, MEM^R, CAZ^R, GM^R) | MIC ([7]; K. pneumoniae MMX 4653, KPC-3, Lev^R, MEM^R, CAZ^R) | MIC ([7]; K. pneumoniae MMX 5979, NDM-1, Lev^R, MEM^R, CAZ^R, Gm^R) | MIC ([8]; P. aeruginosa MMX 4654, IMP-7, Lev^R, Cip^R, MEM^R, CAZ^R)
0.06 µg/mL: MIC ([2]; ATCC49619, S. pneumoniae MMX 6837 (ATCC 49619), QC) | MIC ([10]; S. agalactiae MMX 3743, ERY^R CC^R) | MIC ([10]; S. agalactiae MMX 4077, ERY^R CC^R) | MIC ([10]; S. agalactiae MMX 4086, ERY^R CC^R)
0.5 µg/mL: MIC ([2]; S. pneumoniae MMX 880, Lev^R SXT^R CC^R Ery^R Pen^R) | MIC ([6]; A. baumannii MMX 3373, Sensitive) | MIC ([8]; ATCC27853, P. aeruginosa MMX 103 (ATCC 27853), QC)
1 µg/mL and 2 µg/mL: MICB ([1]; B. cenocepacia 813)
4 µg/mL: MIC ([1]; B. cenocepacia 548) | MIC ([5]; B. cepacia 546) | MIC ([5]; B. cepacia 1793) | MIC ([6]; A. baumannii MMX 3372, MDR, Cip^R, MEM^I, CAZ^I) | MIC ([7]; K. pneumoniae MMX 4685, ESBL, Lev^R, MEM^R, CAZ^R)
0.5 and 1: FICB ([1]; B. cenocepacia 548) | FICB ([1]; B. cenocepacia 813)
32 µg/mL: MIC ([3]; ATCCBAA2469, E. coli MMX 5980 (ATCC BAA-2469), NDM-1, Lev^R, MEM^R, CAZ^R, Gm^R) | MIC ([7]; K. pneumoniae MMX 4683, KPC-2, Lev^R, MEM^R, CAZ^R) | MIC ([7]; K. pneumoniae MMX 4694, KPC-3, Lev^R, MEM^R, CAZ^R) | MIC ([8]; P. aeruginosa MMX 2562, MDR, Lev^R, Cip^R, MEM^R, CAZ^R) | MIC ([12]; P. aeruginosa 8798, Meropenem alone (checkerboard with BisEDT), read-out: Drug B MIC)
1 µg/mL: MIC ([2]; S. pneumoniae MMX 937, Mem^R SXT^R CC^R Ery^R Pen^R) | MIC ([2]; S. pneumoniae MMX 5440, Mem^R SXT^R CC^R Ery^R Pen^R) | MIC ([2]; S. pneumoniae MMX 5445, Mem^R SXT^R CC^R Ery^R Pen^R) | MIC ([2]; S. pneumoniae MMX 8133, Mem^R SXT^R CC^R Ery^R Pen^R) | MIC ([12]; P. aeruginosa 9108, Meropenem alone (checkerboard with BisEDT), read-out: Drug B MIC)
2 µg/mL: MIC ([1]; B. cenocepacia 813) | MIC ([11]; E. faecalis MMX 8962)
64 µg/mL: MIC ([6]; A. baumannii MMX 2592, MDR, Lev^R, Cip^R, MEM^R, CAZ^R, Gm^R) | MIC ([6]; A. baumannii MMX 2593, MDR, Lev^R, Cip^R, MEM^R, CAZ^R, Gm^R) | MIC ([6]; NCTC13304, A. baumannii MMX 4651 (NCTC 13304), MDR, OXA-27, Lev^R, Cip^R, MEM^R, CAZ^R, Gm^I)
0.015 µg/mL: MIC ([3]; E. coli MMX 8425, ESBL, Lev^R, CAZ^R, Gm^R)
16 µg/mL: MIC ([8]; P. aeruginosa MMX 1381, MDR, Lev^R, Cip^R, MEM^R, CAZ^R) | MIC ([8]; P. aeruginosa MMX 3991, MDR, Lev^R, Cip^R, MEM^R, CAZ^R) | MICB (Drug B in combination) ([12]; P. aeruginosa 6322, with BisEDT, checkerboard rows C-G) | MIC ([12]; P. aeruginosa 6322, checkerboard panel BisEDT/Meropenem, read-out: Drug B MIC (alone)) | MIC ([12]; P. aeruginosa 7745, Meropenem alone (checkerboard with BisEDT), read-out: Drug B MIC)
8 µg/mL: MIC ([7]; K. pneumoniae MMX 4684, ESBL, MEM^R) | MIC ([8]; P. aeruginosa MMX 4697, VIM-2, Lev^R, Cip^R, MEM^R, CAZ^R) | MIC ([10]; S. agalactiae MMX 4079, ERY^R CC^R Pen^R MEM^R) | MIC ([11]; E. faecalis MMX 8960) | MIC ([11]; E. faecalis MMX 8961) | MIC ([12]; P. aeruginosa 6977, Meropenem alone (checkerboard with BisEDT), read-out: Drug B MIC)
0.03 µg/mL: MIC ([2]; S. pneumoniae MMX 3959, CC^R Ery^R) | MIC ([3]; ATCC25922, E. coli MMX 102 (ATCC 25922), QC) | MIC ([3]; E. coli MMX 8423, ESBL, Lev^R, CAZ^R, Gm^R) | MIC ([3]; E. coli MMX 8424, ESBL, CAZ^R) | MIC ([10]; S. agalactiae MMX 3741, ERY^R CC^R)
